According to article PMC11762957, “Rescue of Mutant CFTR Channel Activity by Investigational Co-Potentiator Therapy” (Biomedicines, 2025):
pEC50: −log10 of the molar value.

Columns and labels:
Type in all cases: cell-based
p.Gly1349Asp-CFTR = target: T1, p.Gly1349Asp-CFTR (Homo sapiens, UniProt P13569, G1349D); test: HS-YFP assay, CFBE41o- cells transiently transfected with p.Gly1349Asp-CFTR; settings: Fsk 5 μM
T1 construct: expressed in transfected cells; host or cells: CFBE41o- cells stably expressing HS-YFP, transient transfection of pcDNA5-CFTR
T1 sequence (P13569 whole entry G1349D): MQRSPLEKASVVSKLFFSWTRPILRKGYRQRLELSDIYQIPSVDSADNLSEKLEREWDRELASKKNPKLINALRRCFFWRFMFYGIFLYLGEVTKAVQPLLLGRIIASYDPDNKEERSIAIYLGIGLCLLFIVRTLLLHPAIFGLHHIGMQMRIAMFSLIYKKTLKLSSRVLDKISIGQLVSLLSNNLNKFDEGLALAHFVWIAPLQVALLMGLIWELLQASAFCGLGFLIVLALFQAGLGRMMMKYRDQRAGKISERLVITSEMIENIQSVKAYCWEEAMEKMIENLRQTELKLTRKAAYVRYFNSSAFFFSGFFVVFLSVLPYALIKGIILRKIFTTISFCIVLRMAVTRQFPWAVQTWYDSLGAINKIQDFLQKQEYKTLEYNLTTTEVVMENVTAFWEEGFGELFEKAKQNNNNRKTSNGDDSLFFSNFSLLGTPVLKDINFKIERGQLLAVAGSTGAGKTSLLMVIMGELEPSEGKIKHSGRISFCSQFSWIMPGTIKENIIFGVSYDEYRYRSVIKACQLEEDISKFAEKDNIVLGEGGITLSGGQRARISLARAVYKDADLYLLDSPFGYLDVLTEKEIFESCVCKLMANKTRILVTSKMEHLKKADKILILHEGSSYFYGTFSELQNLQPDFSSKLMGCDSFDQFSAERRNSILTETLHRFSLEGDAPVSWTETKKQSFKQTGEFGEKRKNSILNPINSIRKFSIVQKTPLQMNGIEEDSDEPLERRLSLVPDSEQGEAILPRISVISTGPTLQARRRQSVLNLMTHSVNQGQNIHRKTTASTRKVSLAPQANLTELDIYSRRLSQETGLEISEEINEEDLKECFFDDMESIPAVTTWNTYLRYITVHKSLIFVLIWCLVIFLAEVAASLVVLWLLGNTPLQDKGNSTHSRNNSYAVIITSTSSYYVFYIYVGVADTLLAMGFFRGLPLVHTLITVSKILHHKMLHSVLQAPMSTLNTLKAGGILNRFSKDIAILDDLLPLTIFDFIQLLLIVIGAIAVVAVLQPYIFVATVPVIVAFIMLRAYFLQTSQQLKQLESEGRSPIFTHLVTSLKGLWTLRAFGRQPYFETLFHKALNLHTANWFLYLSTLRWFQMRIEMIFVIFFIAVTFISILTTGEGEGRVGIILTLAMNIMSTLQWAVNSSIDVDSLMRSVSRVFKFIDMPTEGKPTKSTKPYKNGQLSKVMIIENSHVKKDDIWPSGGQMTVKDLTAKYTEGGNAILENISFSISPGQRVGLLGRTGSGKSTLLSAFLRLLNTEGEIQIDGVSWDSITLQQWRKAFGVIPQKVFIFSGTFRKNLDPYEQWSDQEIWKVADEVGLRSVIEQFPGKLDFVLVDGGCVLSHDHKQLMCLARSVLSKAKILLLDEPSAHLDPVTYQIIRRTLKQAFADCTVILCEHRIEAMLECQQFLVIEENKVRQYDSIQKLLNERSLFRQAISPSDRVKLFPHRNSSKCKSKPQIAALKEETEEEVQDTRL
Description: (§1) Site-directed mutagenesis was performed using KOD HOT start DNA polymerase (#71086-3, Sigma-Aldrich, St. Louis, MO, USA), according to manufacturer’s instructions, to insert variants under study (c.613C>T or p.Pro205Ser; c.1645A>C or p.Ser549Arg; c.1647T>G or p.Ser549Arg; c.1652G>A or p.Gly551Asp; c.2834C>T or p.Ser945Leu; and c.4046G>A or p.Gly1349Asp) into CFTR cDNA cloned in the pcDNA5 expression vector. After confirmation by Sanger sequencing, CFBE41o^− cells expressing HS-YFP seeded onto 96-well plates were transfected with 0.1 µg per well of the indicated plasmid. Lipofectamine 3000 (#L3000015, ThermoFischer Scientific, Waltham, MA, USA) was used as the transfection agent diluted in Opti-MEM reduced serum medium (#31985070, ThermoFischer Scientific, Waltham, MA, USA) according to manufacturer’s instructions.
(§2) CFTR activity was determined by the HS-YFP microfluorimetric assay (described in detail in previous studies) using CFBE41o^− cells expressing HS-YFP together with stably expressed p.Arg334Trp-CFTR or transiently transfected with CFTR cDNA (variants p.Pro205Ser, p.Ser549Arg, p.Gly551Asp, p.Ser945Leu, and p.Gly1349Asp) cloned into pcDNA5. Briefly, cells were washed with phosphate-buffered saline (PBS; in mM: 137 NaCl, 2.7 KCl, 8.1 Na2HPO4, 1.5 KH2PO4, 1 CaCl2, and 0.5 MgCl2) and then incubated for 30 min at 37 °C with 60 μL of PBS plus Fsk (5 μM) and test compound(s) to stimulate CFTR channels. DMSO (vehicle) and VX-770 (1 μM) were used as negative and positive controls, respectively. All conditions were performed in triplicate on each plate. Thereafter, cells were transferred to a microplate reader (Tecan Infinite 200 Pro) equipped with high-quality excitation (485 ± 20 nm) and emission (535 ± 25 nm) filters for YFP. Each reading consisted of a continuous 14 s fluorescence recording with 2 s before and 12 s after injection of 165 μL of an iodide-containing solution (PBS with Cl^− replaced by I^−; final I^− concentration: 100 mM). Data were normalized to the initial background-subtracted fluorescence. To determine the I^− influx rate, the final 11 s of the data for each well were fitted with an exponential function to extrapolate the initial slope (dF/dt).
(§3) As CFTR variants with similar defect(s) may respond differently to the same treatment(s), we assessed whether LSO-24 or its derivative LSO-150, alone or in combination(s), could rescue CFTR activity for other variants with gating/conductance defects. […] After 24 h, the cells were acutely stimulated with Fsk plus test compound(s), and the cell fluorescence was recorded before and after the addition of an I^−-containing solution. […]

p.Gly551Asp-CFTR = target: T2, p.Gly551Asp-CFTR (Homo sapiens, UniProt P13569, G551D); test: HS-YFP assay, CFBE41o- cells transiently transfected with p.Gly551Asp-CFTR; settings: LSO-24 5 μM, LSO-150 3 μM, VX-770 1 μM, ABBV-3067 10 μM, Fsk 5 μM
T2 construct: expressed in transfected cells; host or cells: CFBE41o- cells stably expressing HS-YFP, transient transfection of pcDNA5-CFTR
T2 sequence (P13569 whole entry G551D): as the sequence (P13569 whole entry G1349D) above, with G551D, D1349G counted along it
Description: as §1
(§4) CFTR activity was determined by the HS-YFP microfluorimetric assay (described in detail in previous studies) using CFBE41o^− cells expressing HS-YFP together with stably expressed p.Arg334Trp-CFTR or transiently transfected with CFTR cDNA (variants p.Pro205Ser, p.Ser549Arg, p.Gly551Asp, p.Ser945Leu, and p.Gly1349Asp) cloned into pcDNA5. […] Thereafter, cells were transferred to a microplate reader (Tecan Infinite 200 Pro) equipped with high-quality excitation (485 ± 20 nm) and emission (535 ± 25 nm) filters for YFP. Each reading consisted of a continuous 14 s fluorescence recording with 2 s before and 12 s after injection of 165 μL of an iodide-containing solution (PBS with Cl^− replaced by I^−; final I^− concentration: 100 mM). Data were normalized to the initial background-subtracted fluorescence. […]
as §3

p.Arg334Trp-CFTR = target: T3, p.Arg334Trp-CFTR (Homo sapiens, UniProt P13569, R334W); test: HS-YFP assay on a plate reader (CFTR-mediated I- influx), CFBE41o- cells co-expressing HS-YFP and p.Arg334Trp-CFTR
T3 construct: expressed in transfected cells
T3 sequence (P13569 whole entry R334W): as the sequence (P13569 whole entry G1349D) above, with R334W, D1349G counted along it
Description: Parental CFBE41o^− cells stably expressing HS-YFP (p.His148Gln-Ile152Leu) were cultured in minimum essential medium (MEM, #10-010-CV, Corning, VA, USA) supplemented with 10% fetal bovine serum (#LTI 10270-106, Gibco, Carlsbad, CA, USA). CFBE41o^− cells stably co-expressing HS-YFP (p.Phe46Leu-His148Gln-Ile152Leu) and p.Arg334Trp-CFTR were cultured in a similar medium including 2 µg mL^−1 puromycin (#P8833, Sigma-Aldrich, St. Louis, MO, USA). For the YFP assay of CFTR activity, cells were plated (30,000 cells/well) on 96-well clear-bottom, black-walled microplates (#655090, Greiner Bio-One, Kremsmünster, Austria). All cells were maintained in a humidified incubator (5% CO2) at 37 °C.
as §2
All the compounds (Scheme 1) were tested in CFBE41o^− cells co-expressing HS-YFP and p.Arg334Trp-CFTR to assess CFTR-mediated I^− influx based on fluorescence quenching. The cells were incubated for 30 min with Fsk (an adenyl cyclase activator that increases intracellular cAMP levels) plus the test compounds in two different concentrations (3 and 20 μM). Thereafter, the efficacy of the compounds in rescuing CFTR activity was determined by the YFP quenching rate and normalized to DMSO (negative control). […] Such an increase was equivalent to that of the cells treated with VX-770 or apigenin (used as positive controls).
Next, the active compounds were submitted for further analysis for evaluation of their potency and efficacy. To this aim, the compounds were retested as potentiators at various concentrations in the range 0.16–30 μM with Fsk on CFBE41o^− cells.

p.Ser945Leu-CFTR = target: T4, p.Ser945Leu-CFTR (Homo sapiens, UniProt P13569, S945L); test: HS-YFP assay, CFBE41o- cells transiently transfected with p.Ser945Leu-CFTR; settings: LSO-24 5 μM, LSO-150 3 μM, Fsk 5 μM
T4 construct: expressed in transfected cells; host or cells: CFBE41o- cells stably expressing HS-YFP, transient transfection of pcDNA5-CFTR
T4 sequence (P13569 whole entry S945L): as the sequence (P13569 whole entry G1349D) above, with S945L, D1349G counted along it
Description: as §1, with “Lipofectamine 3000 (#L3000015, ThermoFischer Scientific, Waltham, MA, USA) was used as the transfection agent diluted in Opti-MEM reduced serum medium (#31985070, ThermoFischer Scientific, Waltham, MA, USA) according to manufacturer’s instructions.” left out
as §4

Fluorescence quenching rate, effect in combination(s) with VX-770 or ABBV-3067 (p.Gly1349Asp-CFTR; LSO-24 5 μM or LSO-150 3 μM added to VX-770 1 μM or ABBV-3067 10 μM): no effect
Fluorescence quenching rate, single compound (p.Gly1349Asp-CFTR; LSO-24 5 μM, LSO-150 3 μM, VX-770 1 μM, ABBV-3067 10 μM): no effect
CFTR activity (fluorescence quenching rate), single compound (p.Gly551Asp-CFTR): increased CFTR activity
pEC50 (p.Arg334Trp-CFTR; CFBE41o- cells, with Fsk, concentrations 0.16–30 μM, read-out: EC50 (potentiation of p.Arg334Trp-CFTR activity)): 6.00
CFTR-mediated I- influx (YFP quenching rate normalized to DMSO) (p.Arg334Trp-CFTR; test compound 3 and 20 μM, 30 min with Fsk 5 μM, vs DMSO): increase in CFTR-mediated I^− influx
CFTR activity (fluorescence quenching rate), single compound (p.Ser945Leu-CFTR): increased CFTR activity
SMILES: CCOC(=O)c1ccc(-n2cc(C(O)c3ccc(Br)cc3)nn2)cc1 (stereo not shown) [LSO-150]
Fluorescence quenching rate in combination with ABBV-974 (p.Arg334Trp-CFTR; LSO-150 3 μM or LSO-153 5 μM + ABBV-974 10 μM, Fsk 5 μM, vs single potentiator): further increase in the fluorescence quenching rate
Fluorescence quenching rate in combination with ABBV-3067 (p.Arg334Trp-CFTR; LSO-150 3 μM or LSO-153 5 μM + ABBV-3067 10 μM, Fsk 5 μM, vs single potentiator): further increase in the fluorescence quenching rate
Fluorescence quenching rate in combination with VX-770 (p.Arg334Trp-CFTR; LSO-150 3 μM or LSO-153 5 μM + VX-770 1 μM, Fsk 5 μM, vs single potentiator): further increase in the fluorescence quenching rate
Fluorescence quenching rate in combination with apigenin (p.Arg334Trp-CFTR; LSO-150 3 μM or LSO-153 5 μM + apigenin 50 μM, Fsk 5 μM, vs single potentiator): equivalent cell-fluorescence quenching rate to that of each compound individually
